# Measured values: patent US5049372A, “Anticancer activities in a host by increasing blood and plasma adenosine 5'-triphosphate (ATP) levels” (priority 1988, dated 1991)
# Where a name gives a salt, the structure may show the parent alone.
# Experiments:
# CT26 tumors = assay: Growth inhibition of s.c. footpad CT26 tumors in CB6F1 mice by daily i.p. adenine nucleotides (Table 1); type: in vivo, mouse; settings: 0.5 × 10^6 cells, 1 ml of 50 mM i.p. daily
# Description: (§1) The tumor cell lines employed were CT26, a mouse undifferentiated, aggressive colon carcinoma, and CAPAN-1, a well-differentiated human pancreatic adenocarcinoma. […] The cells are shown to be free of Mycoplasma contamination. Cells are cultured at 37° C. in a humidified atmosphere of 5% CO2 /95% air in MEM supplemented with antibiotics (100 units of penicillin per ml and 100 μg streptomycin per ml), L-glutamine (2 mM), non-essential amino acids (0.1 mM), sodium pyruvate (1 mM), and 10% fetal bovine serum.
# (§2) In the tests, females and males CB6F1 mice (a standard F1 hybrid of BALB/C and C57BL/6) obtained from Jackson Laboratories, Bar Harbor, Maine and athymic outbred NCr nu/nu mice (males and females) from the Department of Radiation Medicine, Massachusetts General Hospital, Boston, Mass. 02114 are used. All the mice are kept for at least two weeks before inoculation of the tumors and the start of treatment and are 7-9 weeks old (CB6F1) or 6-7 weeks old (athymic nu/nu) at the start of the procedure. Animals weigh 20-25 g (females) or 23-28 g (males), are housed 5-12 per cage, and have ad libitum access to food and water.
# (§3) Tumor cells are removed from subconfluent cultures by a mild trypsin-EDTA treatment, the cell pellet is washed once with MEM without serum and the cells are suspended at the desired cell numbers in PBS (phosphate-bufferedsaline, 8 g NaCl, 0.2 g KCl, 1.15 g Na2 HPO4.7H2 O, and 0.2 g KH2 PO4 per liter). Cell suspensions are shown to be at least 90% viable by trypan blue exclusion. Mice are injected subcutaneously in the right hind footpad with tumor cells suspended in 50 μl of PBS. The regular protocol (unless otherwise stated) consists of daily i.p. injections of 1 ml of 0.85% NaCl solution or 1 ml of 50 mM of AMP, ADP, or ATP in 0.85% NaCl (from stock solutions adjusted to pH 6.2) starting one day after tumor inoculation and given for ten consecutive days.
# (§4) Injections are administered with 30 gauge needles and the mice are lightly anesthetized with ether. The mice are weighed before the start of treatment and once a week during and after treatment. After the tumors become palpable, tumor sizes are determined every three days. The animals are sacrificed, tumors are excised and weighed before they reach 10% of the animals' weight.
# The growth inhibitory properties of adenine nucleotides against CT26 murine colon carcinoma, which are inoculated s.c. in the hind footpad of CB6F1 mice, are illustrated in Table 1 hereinbelow. […] No significant differences between males and females are observed either in the rate of tumor growth or in the tumor's response to adenine nucleotides treatment.
# CAPAN-1 xenografts = assay: Arrest of growth of CAPAN-1 xenografts in athymic nu/nu mice (Table 2); type: in vivo, human; settings: experiment 5, 10 F, 0.5 × 10^5 cells, 9 weeks, 1 ml of 50 mM i.p.
# Description: as §1, §2, §3, §4
# The effects of AMP, ADP, and ATP on human tumor xenografts in nude mice were evaluated utilizing the pancreatic ductal adenocarcinoma CAPAN-1 (see Kyriazis AP, Kyriazis AA, Scarpelli DG, Fogh J, Rao SM, Lepera R., "Human Pancreatic Adenocarcinoma Line CAPAN-1 in Tissue Culture and the Nude Mouse", Am. J. Pathol., 1982, 106, 250-260).
# Treatment schedules consist of single daily i.p. injections for 10 consecutive days, starting one day after tumor inoculation. Tumor burden is relatively low (0.5-1×10^5 cells implanted) and tumor growth is slow (tumors became palpable 4-6 weeks after inoculation).
# [1] = ATP levels in mouse blood (total cellular) and plasma after i.p. injection (Table 3); type: in vivo; settings: CB6F1; for Blood ATP levels: total cellular
# Description: The mice are anesthetized with ether during the procedure. The plasma is prepared by immediate centrifugation of the blood in a Beckman microfuge (30 sec at 8000 xg). Blood (20 μl) or plasma (100 μl) aliquots are added to 1 ml of cold 7% trichloroacetic acid. […] The determination of ATP levels in the extracts is performed by bioluminometry (luciferinluciferase) using a Turner Designs Bioluminescence Photometer.
# [2] = Host toxicity (deaths, body weight) in treated mice; type: in vivo, mouse; settings: i.p. injections of adenine nucleotides
# Description: as §3, §4
# tumor cells = settings: low doses; prior application Ser. No. 397,897; cited from earlier work
# [3] = test system: blood plasma phosphodiesterase; settings: anticoagulant; chelation of divalent cations; cited from earlier work
# human subjects = settings: single rapid injections of 40 mg, intravenous or intra-arterial; cited from earlier work
# tumor-bearing hosts = settings: literature; cited from earlier work
# [4] = experiment 3, 12 M per group, day 13
# [5] = experiment 4, 11 F per group, day 14
# [6] = 1 hour after i.p. 1 ml of 50 mM
# [7] = 5 hours after i.p. 1 ml of 50 mM
compound,measurement,setting,value
"Nc1ncnc2c1ncn2[C@@H]1O[C@H](COP(=O)(O)OP(=O)(O)O)[C@@H](O)[C@H]1O [ADP, adenosine 5'-diphosphate]",Tumor diameter,CT26 tumors; [4],1.3 ± 0.2 cm
same,Tumor weight,CT26 tumors; [4],0.73 ± 0.23 g
same,Tumor diameter,CT26 tumors; [5],1.1 ± 0.2 cm
same,Tumor weight,CT26 tumors; [5],0.86 ± 0.27 g
same,Arrested tumors/implanted tumors,CAPAN-1 xenografts,6/10
same,Plasma ATP levels,[1]; [6],2.66 ± 0.46 µM
same,Blood ATP levels,[1]; [6],1.28 ± 0.30 mM
same,Plasma ATP levels,[1]; [7],2.75 ± 0.87 µM
same,Blood ATP levels,[1]; [7],1.65 ± 0.41 mM
same,Deaths,[2],"Occasionally, an animal treated with ATP or ADP would die a few hours after injection"
same,Effect on growth of tumor cells in vitro (in words),tumor cells,marked inhibition of DNA synthesis and arrest of significant populations of cells in the S phase of their cycle
O=C(O)CC(O)(CC(=O)O)C(=O)O [Citrate],Inhibition of blood plasma phosphodiesterase activity,[3],inhibit the activity of a blood plasma phosphodiesterase
"Nc1ncnc2c1ncn2[C@@H]1O[C@H](COP(=O)(O)OP(=O)(O)OP(=O)(O)O)[C@@H](O)[C@H]1O [sodium salt of ATP, reference compound]",Subjective and physiological changes in human subjects,human subjects,small subjective and physiological changes in human subjects
insulin: the anabolic hormone insulin,Effect against rapid weight losses in tumor-bearing hosts,tumor-bearing hosts,effective against rapid weight losses in tumor-bearing hosts
same,Effect on growth of the tumor itself,tumor-bearing hosts,do not inhibit the growth of the tumor itself
